For data set [1], the system named is iOL (SON-transduced human iPSC-derived NPC). The data set is described as follows: Compound screen: differentiation-promoting effect of drug candidates on iOL (O4 and MBP immunocytochemistry). It counts as cell-based. As to conditions: for toxic influence on iOL: at higher concentrations (tested 0.5, 1, 5 μM); for formation of MBP+ mature iOL relative to T3-treated cultures: drug candidate at 0.5, 1, 5 μM; for effect on formation of O4+ iOL compared to DMSO control: T3 60 ng/ml or drug candidate at 0.5, 1, 5 μM. Here is the method:
For immunocytochemical analysis, an equal volume of 4% PFA in PBS was added to the culture medium and cells were pre-fixed for 10 min at room temperature (RT). After removing the supernatant, cells were fixed for an additional 15 minutes with 4% PFA in PBS and washed three times with PBS. Fixed cells were permeabilized by adding 0.2% Triton X-100 (Sigma) in PBS for 15 min at RT (This step was omitted for NG2, O4 and GalC staining). Subsequently, blocking was performed by incubating the cells with 5% normal goat serum (NGS; Gibco) and 5% fetal calf serum (FCS; Gibco) for 30 min at RT. Primary antibodies were applied overnight at 4° C. in blocking solution. Following three washing steps with PBS, cells were incubated with Alexa Fluor conjugated secondary antibodies diluted in PBS for 1 h at RT. Cells were subsequently washed three times with PBS, including a Hoechst counterstaining for nuclei in the second washing step. Cells on glass coverslips were mounted in Dako Fluorescent Mounting Medium (Dako) and visualized on a Zeiss LSM700 confocal microscope. Cells on plastic cell culture plates were visualized on a Leica DM16000 B inverted microscope.
To assess the sensitivity of iOL towards differentiation promoting drugs, iPSC-derived NPC were transduced with concentrated SON virus particle as described above. Viral medium was removed after 24 h and replaced with GIM lacking T3. The end of the virus infection period was termed day 0. At day 5 of differentiation, cells were detached, singularized and reseeded at densities of 5×10^4 cells in matrigel-coated 48-well plates or 1.5×10^5 cells in 24-well plates containing matrigel-coated glass coverslips. Cells were allowed to recover in minimum DM consisting of DMEM-F12 with 1:200 N2 supplement, 1:100 B27 supplement lacking vitamin A, 1% penicillin/streptomycin/glutamine, 200 μM AA and 100 μM dbcAMP. After 24 h cells were treated with vehicle alone (0.01% (v/v) DMSO) as a negative control, 60 ng/ml T3 as a positive control, or with a drug candidate dissolved in DMSO at three different concentrations (0.5 μM, 1 μM, 5 μM) in minimum DM. The drug candidates comprised miconazole (Sigma), clobetasol (TCI), benztropine (Sigma), indometacin (Sigma), clemastine (Sigma) and oxybutynin (Sigma). Medium was changed every other day and cells were fixed in 4% PFA for immunocytochemical analysis after 21 days of treatment. Investigators were blinded for immunocytochemical analysis.
Identification of drugs inducing remyelination via promotion of oligodendroglial differentiation presents a promising approach for the treatment of demyelinating disorders like MS. Thus, we assessed whether iOL can be utilized to identify compounds promoting oligodendroglial differentiation. We selected six drug candidates (miconazole, clobetasol, benztropine, indometacin, clemastine and oxybutynin) which have been previously described to promote differentiation or myelination of rodent OL^1, 18-20. iOL cultures were treated with either vehicle (0.01% (v/v) DMSO) as a negative control, thyroid hormone (T3) as a positive control, or the drug candidate dissolved in DMSO at three different concentrations (0.5 μM, 1 μM, 5 μM) (FIG. 7a-d).

Data set [2] deals with MAPT-OL (iOL carrying the N279K MAPT mutation). The data set is described as follows: Stress-induced cell death: rotenone on O4+ iOL, cleaved CASPASE 3 / O4 double-staining. The settings on record: rotenone 100, 250 and 500 nM, 48 h; all results combined, control cultures set to 100%. The class given is cell-based, human. Here is the method:
To examine the effect of rotenone (Sigma) on the viability of iOL derived from either N279K MAPT or Ctrl cells O4^+ iOL were purified using the MACS technology after 21 days of differentiation and replated at a density of 8×10^3 cells per well into matrigel-coated 96-well plates. After another 6 days in DM, cells were treated with either vehicle (0.01% (v/v) DMSO) or rotenone dissolved in DMSO at three different concentrations (100 nM, 250 nM, 500 nM). […] Investigators were blinded for immunocytochemical analysis.
After 28 days of differentiation, O4^+ iOL harboring the N279K mutation (MAPT-OL) were morphologically indistinguishable from their gene corrected control cell lines (MAPT-GC-OL) (FIG. 7e) and featured similar differentiation efficiencies among all cell lines included (FIG. 7f). We next set out to investigate whether the N279K MAPT mutation induces an altered expression of TAU isoforms in iOL. We purified O4^+ iOL using FACS before RNA sample preparation. […] FTDP-17 patients display widespread neurodegeneration due to increased cellular vulnerability. […]

The structures appear in SMILES notation.

The source of these data is patent US20190322981A1, “MEANS AND METHODS FOR THE GENERATION OF OLIGODENDROCYTES” (Westfaelische Wilhelms-Universitaet Muenster, priority 2016, published 2019).

For the compound `N[C@@H](Cc1cc(I)c(Oc2ccc(O)c(I)c2)c(I)c1)C(=O)O` [T3, Triiodo-L-Thyronine], in data set [1] (60 ng/ml T3 (positive control), minimum DM, 21 days, DMSO control 14.01±2.89%), the “O4+ cells” value is recorded as 28.25±3.47%.

Regarding `CN1[C@@H]2CC[C@H]1C[C@@H](OC(c1ccccc1)c1ccccc1)C2` [benztropine], the “toxic influence on iOL” value in data set [1] (21 days) is “toxic influence”. The “formation of MBP+ mature iOL relative to T3-treated cultures” value in data set [1] (minimum DM, 21 days) was “comparable to T3-treated cultures”.

Consider `CN1CCC[C@@H]1CCO[C@](C)(c1ccccc1)c1ccc(Cl)cc1` [clemastine], for which, in data set [1] (minimum DM, 21 days), the “effect on formation of O4+ iOL compared to DMSO control” value is “failed to promote the formation of O4^+ iOL”. The “toxic influence on iOL” value in data set [1] (21 days) is recorded as “toxic influence”.

As to `C[C@H]1C[C@H]2[C@@H]3CCC4=CC(=O)C=C[C@]4(C)[C@@]3(F)[C@@H](O)C[C@]2(C)[C@@]1(O)C(=O)CCl` [clobetasol], the “formation of MBP+ mature iOL relative to T3-treated cultures” value in data set [1] (minimum DM, 21 days) was “comparable to T3-treated cultures”.

`Clc1ccc(COC(Cn2ccnc2)c2ccc(Cl)cc2Cl)c(Cl)c1` (stereo not drawn) [miconazole]: the “increase of MBP+ cells compared to DMSO control cultures” value in data set [1] (1 μM, minimum DM, 21 days) was “almost tenfold increase”. For the same compound, the “toxic influence on iOL” value in data set [1] (21 days) is reported as “toxic influence”. Besides, the “toxic effect on iOL” value in data set [1] (fivefold higher concentration than the effective 1 μM) is reported as “toxic effect”. Besides, the “differentiation-promoting effect on iOL, ranked among the tested compounds” value in data set [1] (six drug candidates compared) is listed as “strongest effect on iOL”.

`CCN(CC)CC#CCOC(=O)C(O)(c1ccccc1)C1CCCCC1` (stereo not drawn) [oxybutynin]: in data set [1] (minimum DM, 21 days), the “effect on formation of O4+ iOL compared to DMSO control” value is recorded as “failed to promote the formation of O4^+ iOL”.

As for `C=C(C)[C@H]1Cc2c(ccc3c2O[C@@H]2COc4cc(OC)c(OC)cc4[C@@H]2C3=O)O1` [rotenone], the “average increase of cell death (cleaved CASPASE-3+ iOL) in MAPT-OL” value in data set [2] is reported as 48.9±18.7%.
